Results on 2 molecules are retold here after ChEMBL document CHEMBL1949582, “Suppression of nitric oxide production on LPS/IFN-γ-stimulated RAW264.7 macrophages by a novel catechin, pilosanol N, from Agrimonia pilosa Ledeb” (Bioorg Med Chem Lett, 2012).

For data set [1], the system named is RAW264.7. The data set can be described thus: Antiinflammatory activity in mouse RAW264.7 cells assessed as inhibition of LPS/IFN-gamma-induced NO production at 25 to 100 uM after 20 hrs by Griess method. The data set is classed as functional, cell-based. (Griess reagent forms a coloured azo dye with nitrite.)
For data set [2], the system named is RAW264.7. The data set can be described thus: Protection against LPS/IFN-gamma-induced cell damage in mouse RAW264.7 cells by MTT assay. It counts as functional, cell-based. (Tetrazolium assays rely on reduction of a dye to a coloured formazan, in cell work by metabolically active cells.)
Data set [3] concerns RAW264.7. Put plainly: Antiinflammatory activity in mouse RAW264.7 cells assessed as inhibition of LPS/IFN-gamma-induced iNOS gene expression at 25 uM by RT-PCR analysis. The data set is classed as functional.
For data set [4], the system named is RAW264.7. Put plainly: Antiinflammatory activity in mouse RAW264.7 cells assessed as inhibition of LPS/IFN-gamma-induced iNOS protein production at 100 uM by RT-PCR analysis. The data set is classed as functional, cell-based.
The test system of data set [5] is RAW264.7. The data set can be described thus: Antiinflammatory activity in mouse RAW264.7 cells assessed as inhibition of LPS/IFN-gamma-induced NO production after 20 hrs by Griess method. The data set is classed as functional, cell-based.
A short description of data set [6]: Antioxidant activity in PBS buffer assessed as nitric oxide scavenging activity by measuring inhibition of nitrite production from NOR3 after 60 mins. The data set is classed as functional.
Data set [7] concerns RAW264.7. The data set can be described thus: Cytotoxicity against mouse RAW264.7 cells assessed as cell viability at 25 to 100 uM by MTT assay. The data set is classed as cell-based. Conditions: raw264.7, 100 µM.

Calls of active or inactive are those of the source. The rule behind the calls is not given here.

As for `C[C@@H]1O[C@@H](Oc2c(-c3ccc(O)c(O)c3)oc3cc(O)cc(O)c3c2=O)[C@H](O)[C@H](O)[C@H]1O`, in the data set with RAW264.7 [1], the inhibition entry is “Active”.
Take `COc1c(C)c(O)c(Cc2c(O)cc(O)c3c2O[C@H](c2ccc(O)c(O)c2)[C@@H](O)C3)c(O)c1C(C)=O` [PILOSANOL N]: the results for the Activity result in the data set on RAW264.7 [2] and with RAW264.7 [7] were “Dose-dependent effect” and “Non-toxic”, respectively. In the data set with RAW264.7 [3], the inhibition at 25 µM worked out at 60%. Also, the inhibition entry in the data set on RAW264.7 [4] was “Active”. Also, the inhibition result (with RAW264.7 [5]; in data set [6]) was “Dose-dependent effect” in each case.

As a reminder, the inhibition is how much of the control response was suppressed.
